Assay results: PubChem BioAssay AID1963843 (Molecular Pharmacology Branch, DTP, NCI, 2024)

Test system: 616215-338-R-J1-PDC complex spheroid viability
Assay: Anticancer human tumor 616215-338-R-J1-PDC patient-derived colon adenocarcinoma cell line growth inhibition [POLQ]
Settings: for IC50: curve of first compound; for viability, T/C: stronger effect = lower value; active = viability on the fitted dose curve at most 10% of control; inactive = the rest
How it was run: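 Three-cell-type spheroids modelling solid tumor plus stroma served as the readout system; POL inhibitors were tested individually and in combination, concentration ranges set by clinical Cmax where known.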

[1] = second compound 0.0316 µM, first compound 0.0316 µM
[2] = second compound 0.0316 µM, first compound 0.1 µM
[3] = second compound 0.0316 µM, first compound 0.316 µM
[4] = second compound 0.0316 µM, first compound 1 µM
[5] = second compound 0.0316 µM, first compound 3.16 µM
[6] = second compound 0.0316 µM, first compound 10 µM
[7] = second compound 0.1 µM, first compound 0.0316 µM
[8] = second compound 0.1 µM, first compound 0.1 µM
[9] = second compound 0.1 µM, first compound 0.316 µM
[10] = second compound 0.1 µM, first compound 1 µM
[11] = second compound 0.1 µM, first compound 3.16 µM
[12] = second compound 0.1 µM, first compound 10 µM
[13] = second compound 0.316 µM, first compound 0.0316 µM
[14] = second compound 0.316 µM, first compound 0.1 µM
[15] = second compound 0.316 µM, first compound 0.316 µM
[16] = second compound 0.316 µM, first compound 1 µM
[17] = second compound 0.316 µM, first compound 3.16 µM
[18] = second compound 0.316 µM, first compound 10 µM
[19] = second compound 1 µM, first compound 0.0316 µM
[20] = second compound 1 µM, first compound 0.1 µM
[21] = second compound 1 µM, first compound 0.316 µM
[22] = second compound 1 µM, first compound 1 µM
[23] = second compound 1 µM, first compound 3.16 µM
[24] = second compound 1 µM, first compound 10 µM
[25] = second compound 3.16 µM, first compound 0.0316 µM
[26] = second compound 3.16 µM, first compound 0.1 µM
[27] = second compound 3.16 µM, first compound 0.316 µM
[28] = second compound 3.16 µM, first compound 1 µM
[29] = second compound 3.16 µM, first compound 3.16 µM
[30] = second compound 3.16 µM, first compound 10 µM
[31] = second compound 10 µM, first compound 0.0316 µM
[32] = second compound 10 µM, first compound 0.1 µM
[33] = second compound 10 µM, first compound 0.316 µM
[34] = second compound 10 µM, first compound 1 µM
[35] = second compound 10 µM, first compound 3.16 µM
[36] = second compound 10 µM, first compound 10 µM
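Note: spheroids exposed to compounds for one week before readout.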
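Throughout, for viability, T/C: percent viability relative to DMSO vehicle wells taken as 100%.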

CC(C)n1c(=O)n(C)c2cnc3cc(F)c(-c4ccc(OCCCN5CCCCC5)nc4)cc3c21 + Nc1ccc(C#CCN(C(=O)Cc2ncc(C(F)(F)F)cc2C(F)(F)F)c2ccc(F)cc2)nn1
inactive: viability, T/C [1] 95% | viability, T/C [2] 92.2% | viability, T/C [3] 103% | viability, T/C [4] 101% | viability, T/C [5] 111% | viability, T/C [6] 103% | viability, T/C [7] 93.2% | viability, T/C [8] 110% | viability, T/C [9] 110% | viability, T/C [10] 89.4% | viability, T/C [11] 103% | viability, T/C [12] 96.4% | viability, T/C [13] 96.8% | viability, T/C [14] 97.5% | viability, T/C [15] 99.5% | viability, T/C [16] 97.1% | viability, T/C [17] 97.7% | viability, T/C [18] 99.2% | viability, T/C [19] 107% | viability, T/C [20] 99.8% | viability, T/C [21] 83.1% | viability, T/C [22] 104% | viability, T/C [23] 97.4% | viability, T/C [24] 86.8% | viability, T/C [25] 112% | viability, T/C [26] 97.8% | viability, T/C [27] 84.7% | viability, T/C [28] 90.6% | viability, T/C [29] 117% | viability, T/C [30] 96.2% | viability, T/C [31] 99.5% | viability, T/C [32] 79.3% | viability, T/C [33] 103% | viability, T/C [34] 103% | viability, T/C [35] 76.9% | viability, T/C [36] 97.5%
> 10 µM: IC50 (second compound 0.0316 µM) | IC50 (second compound 0.1 µM) | IC50 (second compound 0.316 µM) | IC50 (second compound 1 µM) | IC50 (second compound 3.16 µM) | IC50 (second compound 10 µM)

CCCS(=O)(=O)Nc1ccc(F)c(C(=O)c2c[nH]c3ncc(-c4ccc(Cl)cc4)cc23)c1F + Nc1ccc(C#CCN(C(=O)Cc2ncc(C(F)(F)F)cc2C(F)(F)F)c2ccc(F)cc2)nn1
5.68 µM: IC50 (second compound 10 µM)
6.23 µM: IC50 (second compound 0.316 µM)
6.1 µM: IC50 (second compound 0.1 µM)
active: viability, T/C [36] 9.03%
inactive: viability, T/C [1] 107% | viability, T/C [2] 109% | viability, T/C [3] 105% | viability, T/C [4] 110% | viability, T/C [5] 114% | viability, T/C [6] 11.4% | viability, T/C [7] 107% | viability, T/C [8] 111% | viability, T/C [9] 110% | viability, T/C [10] 109% | viability, T/C [11] 101% | viability, T/C [12] 11.5% | viability, T/C [13] 101% | viability, T/C [14] 104% | viability, T/C [15] 106% | viability, T/C [16] 105% | viability, T/C [17] 102% | viability, T/C [18] 13.8% | viability, T/C [19] 112% | viability, T/C [20] 114% | viability, T/C [21] 101% | viability, T/C [22] 111% | viability, T/C [23] 102% | viability, T/C [24] 11.9% | viability, T/C [25] 111% | viability, T/C [26] 103% | viability, T/C [27] 107% | viability, T/C [28] 102% | viability, T/C [29] 100% | viability, T/C [30] 13% | viability, T/C [31] 109% | viability, T/C [32] 86.3% | viability, T/C [33] 101% | viability, T/C [34] 94.4% | viability, T/C [35] 92.3%
6.15 µM: IC50 (second compound 1 µM)
6.35 µM: IC50 (second compound 0.0316 µM)
6.14 µM: IC50 (second compound 3.16 µM)

COc1ccc([C@@H](O)c2cc(-c3ncnc4cc(N5CCOCC5)ccc34)c(F)cc2Cl)nn1 + Cc1cccc(N(C)C(=O)C2C(O)CCN2c2nc(C)cc(C(F)(F)F)c2C#N)c1
inactive: viability, T/C [1] 97.8% | viability, T/C [2] 108% | viability, T/C [3] 94.8% | viability, T/C [4] 113% | viability, T/C [5] 101% | viability, T/C [6] 78.7% | viability, T/C [7] 92.6% | viability, T/C [8] 108% | viability, T/C [9] 108% | viability, T/C [10] 109% | viability, T/C [11] 100% | viability, T/C [12] 72.2% | viability, T/C [13] 108% | viability, T/C [14] 108% | viability, T/C [15] 100% | viability, T/C [16] 111% | viability, T/C [17] 109% | viability, T/C [18] 73.5% | viability, T/C [19] 114% | viability, T/C [20] 111% | viability, T/C [21] 109% | viability, T/C [22] 122% | viability, T/C [23] 103% | viability, T/C [24] 70.5% | viability, T/C [25] 97.5% | viability, T/C [26] 104% | viability, T/C [27] 102% | viability, T/C [28] 102% | viability, T/C [29] 105% | viability, T/C [30] 80.3% | viability, T/C [31] 112% | viability, T/C [32] 100% | viability, T/C [33] 99.8% | viability, T/C [34] 111% | viability, T/C [35] 99.8% | viability, T/C [36] 55.6%
> 10 µM: IC50 (second compound 0.0316 µM) | IC50 (second compound 0.1 µM) | IC50 (second compound 0.316 µM) | IC50 (second compound 1 µM) | IC50 (second compound 3.16 µM) | IC50 (second compound 10 µM)
